Our source for the EC50 values is patent US20170210751A1, “PRMT5 INHIBITORS AND USES THEREOF” (Epizyme, Inc., priority 2014, published 2017).

In the experiment the test system is Symmetric di-Methyl Arginine in Z-138 cells. The experiment is described as follows: Z-138 Methylation Assay (In Cell Western for symmetric di-methyl arginine). The settings on record: Homo sapiens, 96 hours incubation, symmetric di-methyl arginine normalised to DNA content, read-out: ICW EC50. It counts as cell-based. An excerpt:
Z-138 suspension cells were purchased from ATCC (American Type Culture Collection, Manassas, Va.). RPMI/Glutamax medium, penicillin-streptomycin, heat inactivated fetal bovine serum, and D-PBS were purchased from Life Technologies, Grand Island, N.Y., USA. Odyssey blocking buffer, 800CW goat anti-rabbit IgG (H+L) antibody, and Licor Odyssey infrared scanner were purchased from Licor Biosciences, Lincoln, Nebr., USA. Symmetric di-methyl arginine antibody was purchased from EMD Millipore, Billerica, Mass., USA. 16% Paraformaldehyde was purchased from Electron Microscopy Sciences, Hatfield, Pa., USA.
Z-138 suspension cells were maintained in growth medium (RPMI 1640 supplemented with 10% v/v heat inactivated fetal bovine serum and 100 units/mL penicillin-streptomycin) and cultured at 37° C. under 5% CO2.
Cell Treatment, In Cell Western (ICW) for detection of Symmetric di-Methyl Arginine and DNA content.
Z-138 cells were seeded in assay medium at a concentration of 50,000 cells per mL to a 384-well cell culture plate with 50 μL per well. Compound (100 nL) from 384 well source plates was added directly to 384 well cell plate. Plates were incubated at 37° C., 5% CO2 for 96 hours. After four days of incubation, 40 μL of cells from incubated plates were added to poly-D-lysine coated 384 well culture plates (BD Biosciences 356697). Plates were incubated at room temperature for 30 minutes then incubated at 37° C., 5% CO2 for 5 hours. After the incubation, 40 μL per well of 8% paraformaldehyde in PBS (16% paraformaldahyde was diluted to 8% in PBS) was added to each plate and incubated for 30 minutes. Plates were transferred to a Biotek 405 plate washer and washed 5 times with 100 μL per well of wash buffer (IX PBS with 0.1% Triton X-100 (v/v)). Next […] well of Odyssey blocking buffer were added to each plate and incubated 1 hour at room temperature. Blocking buffer was removed and 20 μL per well of primary antibody was added (symmetric di-methyl arginine diluted 1:100 in Odyssey buffer with 0.1% Tween 20 (v/v)) and plates were incubated overnight (16 hours) at 4° C. Plates were washed 5 times with 100 μL per well of wash buffer. Next 20 μL per well of secondary antibody was added (1:200 800CW goat anti-rabbit IgG (H+L) antibody, 1:1000 DRAQ5 (Biostatus limited) in Odyssey buffer with 0.1% Tween 20 (v/v)) and incubated for 1 hour at room temperature. The plates were washed 5 times with 100 μL per well wash buffer then 1 time with 100 μL per well of water. Plates were allowed to dry at room temperature then imaged on the Licor Odyssey machine which measures integrated intensity at 700 nm and 800 nm wavelengths. Both 700 and 800 channels were scanned.
First, the ratio for each well was determined by:
Each plate included fourteen control wells of DMSO only treatment (minimum inhibition) as well as fourteen control wells for maximum inhibition treated with 3 μM of a reference compound (Background wells). The average of the ratio values for each control type was calculated and used to determine the percent inhibition for each test well in the plate. Reference compound was serially diluted three-fold in DMSO for a total of nine test concentrations, beginning at 3 μM. Percent inhibition was determined and IC50 curves were generated using triplicate wells per concentration of compound.
In the case of `CC(=O)N1CCC(Nc2cc(C(=O)NC[C@H](O)CN3CCc4ncsc4C3)ncn2)CC1` [Compound 1-18, (S)-6-((1-acetylpiperidin-4-yl)amino)-N-(3-(6,7-dihydrothiazolo[5,4-c]pyridin-5(4H)-yl)-2-hydroxypropyl)pyrimidine-4-carboxamide], the EC50 was above 1000 nM.
As for `CC(=O)N1CCC(Nc2cc(C(=O)NC[C@H](O)CN3CCc4ncsc4C3)ccn2)CC1` [Compound 1-19, (S)-2-((1-acetylpiperidin-4-yl)amino)-N-(3-(6,7-dihydrothiazolo[5,4-c]pyridin-5(4H)-yl)-2-hydroxypropyl)isonicotinamide], the EC50 is above 1000 nM.
Then `Nc1nc2c(s1)CCN(C[C@@H](O)CNC(=O)c1cc(NC3COC3)ncn1)C2` [Compound 1-20, (S)—N-(3-(2-amino-6,7-dihydrothiazolo[4,5-c]pyridin-5(4H)-yl)-2-hydroxypropyl)-6-(oxetan-3-ylamino)pyrimidine-4-carboxamide], with above 1000 nM; and `Nc1nc2c(s1)CN(C[C@@H](O)CNC(=O)c1cc(NC3COC3)ncn1)CC2` [Compound 1-23], with above 1000 nM; and `CC(=O)N1CC(Nc2cc(C(=O)NC[C@H](O)CN3CCc4sc(C)nc4C3)ncn2)C1` [Compound 1-27], with above 1000 nM.
With `CC(=O)N1CC(Nc2cc(C(=O)NC[C@H](O)CN3CCc4sc(N)nc4C3)ncn2)C1` [Compound 1-28] the figure was above 1000 nM.
Then `CC(=O)N1CC(Nc2cc(C(=O)NC[C@H](O)CN3CCc4nc(N)sc4C3)ncn2)C1` [Compound 1-29], with above 1000 nM.
In the case of `CC(=O)N1CCC(Nc2cc(C(=O)NC[C@H](O)CN3CCc4scnc4C3)ccn2)CC1` [Compound 1-30], the half-maximal effective concentration (EC50) lay in the range of 101 to 1000 nM.
For `CC(=O)N1CCC(Nc2cc(C(=O)NC[C@H](O)CN3CCc4scnc4C3)ncn2)CC1` [Compound 1-32], the concentration giving a half-maximal response (EC50) is above 1000 nM.
Then `CC(=O)N1CCC(Nc2cc(C(=O)NC[C@H](O)CN3CCc4sc(C)nc4C3)ccn2)CC1` [Compound 1-33], with above 1000 nM; and `CC(=O)N1CCC(Nc2cc(C(=O)NC[C@H](O)CN3CCc4sc(N)nc4C3)ccn2)CC1` [Compound 1-34], with above 1000 nM.
For `CC(=O)N1CCC(Nc2cc(C(=O)NC[C@H](O)CN3CCc4nc(N)sc4C3)ccn2)CC1` [Compound 1-35], the EC50 was above 1000 nM.
With `CC(=O)N1CCC(Nc2cc(C(=O)NC[C@H](O)CN3CCc4sc(C)nc4C3)ncn2)CC1` [Compound 1-36] the figure was above 1000 nM; with `CC(=O)N1CCC(Nc2cc(C(=O)NC[C@H](O)CN3CCc4sc(N)nc4C3)ncn2)CC1` [Compound 1-37], above 1000 nM; with `CC(=O)N1CCC(Nc2cc(C(=O)NC[C@H](O)CN3CCc4nc(N)sc4C3)ncn2)CC1` [Compound 1-38], above 1000 nM.
With `O=C(COc1cccc2cccnc12)NCC(O)CN1CCc2cccnc2C1` (centres unmarked) [Compound 2-5, N-[2-hydroxy-3-(5,6,7,8-tetrahydro-1,7-naphthyridin-7-yl)propyl]-2-(quinolin-8-yloxy)acetamide] the figure was above 1000 nM.
With `O=C(COc1cccc2cccnc12)NCC(O)CN1CCc2ncccc2C1` (centres unmarked) [Compound 2-6, N-[2-hydroxy-3-(5,6,7,8-tetrahydro-1,6-naphthyridin-6-yl)propyl]-2-(quinolin-8-yloxy)acetamide] the figure was above 1000 nM; with `O=C(COc1cccc2cccnc12)NCC(O)CN1CCc2cnccc2C1` (centres unmarked) [Compound 2-7, N-[2-hydroxy-3-(1,2,3,4-tetrahydro-2,6-naphthyridin-2-yl)propyl]-2-(quinolin-8-yloxy)acetamide], above 1000 nM; with `O=C(COc1cccc2cccnc12)NCC(O)CN1CCc2ccncc2C1` (centres unmarked) [Compound 2-8, N-[2-hydroxy-3-(1,2,3,4-tetrahydro-2,7-naphthyridin-2-yl)propyl]-2-(quinolin-8-yloxy)acetamide], above 1000 nM.
In the case of `CC(=O)N1CC(Nc2cc(C(=O)NC[C@H](O)CN3CCc4ncccc4C3)ncn2)C1` [Compound 2-9, (S)-6-((1-acetylazetidin-3-yl)amino)-N-(3-(7,8-dihydro-1,6-naphthyridin-6(5H)-yl)-2-hydroxypropyl)pyrimidine-4-carboxamide], the concentration for a half-maximal effect (EC50) is 101 to 1000 nM.
Then `CC(=O)N1CCC(Nc2cc(C(=O)NC[C@H](O)CN3CCc4cccnc4C3)ncn2)CC1` [Compound 2-11, (S)-6-((1-acetylpiperidin-4-yl)amino)-N-(3-(5,6-dihydro-1,7-naphthyridin-7(8H)-yl)-2-hydroxypropyl)pyrimidine-4-carboxamide], with 101 to 1000 nM; and `O=C(NC[C@H](O)CN1CCc2ncccc2C1)c1cc(NC2COC2)ncn1` [Compound 2-12, (S)—N-(3-(7,8-dihydro-1,6-naphthyridin-6(5H)-yl)-2-hydroxypropyl)-6-(oxetan-3-ylamino)pyrimidine-4-carboxamide], with above 5000 nM; and `CC(=O)N1CC(Nc2cc(C(=O)NC[C@H](O)CN3CCc4cccnc4C3)ncn2)C1` [Compound 2-13], with 101 to 1000 nM.
Consider `CC(=O)N1CCC(Nc2cc(C(=O)NC[C@H](O)CN3CCc4ncccc4C3)ncn2)CC1` [Compound 2-14, (S)-6-((1-acetylpiperidin-4-yl)amino)-N-(3-(7,8-dihydro-1,6-naphthyridin-6(5H)-yl)-2-hydroxypropyl)pyrimidine-4-carboxamide], for which the 50% effective concentration (EC50) was 101 to 1000 nM.
With `O=C(NC[C@H](O)CN1CCc2cnccc2C1)c1cc(NC2COC2)ncn1` [Compound 2-15] the figure was above 1000 nM; with `CC(=O)N1CC(Nc2cc(C(=O)NC[C@H](O)CN3CCc4cnccc4C3)ncn2)C1` [Compound 2-16], above 1000 nM; with `CC(=O)N1CCC(Nc2cc(C(=O)NC[C@H](O)CN3CCc4cnccc4C3)ncn2)CC1` [Compound 2-17, (S)-6-((1-acetylpiperidin-4-yl)amino)-N-(3-(3,4-dihydro-2,6-naphthyridin-2(1H)-yl)-2-hydroxypropyl)pyrimidine-4-carboxamide], above 1000 nM.
With `CC(=O)N1CCC(Nc2cc(C(=O)NC[C@H](O)CN3CCc4cnccc4C3)ccn2)CC1` [Compound 2-18] the figure was 101 to 1000 nM; with `CC(=O)N1CCC(Nc2cc(C(=O)NC[C@H](O)CN3CCc4ccncc4C3)ccn2)CC1` [Compound 2-19, (S)-2-((1-acetylpiperidin-4-yl)amino)-N-(3-(3,4-dihydro-2,7-naphthyridin-2(1H)-yl)-2-hydroxypropyl)isonicotinamide], above 1000 nM.
As for `CC(=O)N1CCC(Nc2cc(C(=O)NC[C@H](O)CN3CCc4ncccc4C3)ccn2)CC1` [Compound 2-20, (S)-2-((1-acetylpiperidin-4-yl)amino)-N-(3-(7,8-dihydro-1,6-naphthyridin-6(5H)-yl)-2-hydroxypropyl)isonicotinamide], the EC50 was 101 to 1000 nM.
With `CC(=O)N1CCC(Nc2cc(C(=O)NC[C@H](O)CN3CCc4cccnc4C3)ccn2)CC1` [Compound 2-21, (S)-2-((1-acetylpiperidin-4-yl)amino)-N-(3-(5,6-dihydro-1,7-naphthyridin-7(8H)-yl)-2-hydroxypropyl)isonicotinamide] the figure was 101 to 1000 nM; with `CC(=O)N1CC(Nc2cc(C(=O)NC[C@H](O)CN3CCc4ccncc4C3)ncn2)C1` [Compound 2-22], above 1000 nM.
With `CC(=O)N1CCC(Nc2cc(C(=O)NC[C@H](O)CN3CCc4ccncc4C3)ncn2)CC1` [Compound 2-23, (S)-6-((1-acetylpiperidin-4-yl)amino)-N-(3-(3,4-dihydro-2,7-naphthyridin-2(1H)-yl)-2-hydroxypropyl)pyrimidine-4-carboxamide] the figure was above 1000 nM; with `O=C(NC[C@H](O)CN1CCc2ccncc2C1)c1cc(NC2COC2)ncn1` [Compound 2-24], above 1000 nM; with `O=C(COc1cccc2cccnc12)NCC(O)CN1CCc2nc[nH]c2C1` (centres unmarked) [Compound 3-10, N-(2-hydroxy-3-{3H,4H,5H,6H,7H-imidazo[4,5-c]pyridin-5-yl}propyl)-2-(quinolin-8-yloxy)acetamide], above 1000 nM.

A word on the EC50: it is the midpoint of the concentration-response curve.
